Data on 10 molecules can be found in BindingDB's records for doi:10.1021/jm00113a023 (Abbott Laboratories, 1991).

The structures appear in SMILES notation. pIC50: −log10 of the molar value. *1 amine or outer side, *2 acyl side, *3 side chain or, on linkers, in order; H or OH if unused. Where a SMILES comes first, the peptide text is derived from it. Side-chain parts run from the residue outwards. [ ]: non-standard residue; d: D form. The star is where a group is joined. NH(1-naphthyl) = c1ccc2c(N*)cccc2c1; NHPh(4-CF3) = FC(F)(F)c1ccc(N*)cc1; hCit = NC(=O)NCCCC[C@H](N)C(=O)O; NH(2-Me-phenyl) = Cc1ccccc1N*; 3Abz = Nc1cccc(C(=O)O)c1; Orn = NCCC[C@H](N)C(=O)O; βNA = c1ccc2cc(N*)ccc2c1; Boc = CC(C)(C)OC(=O)*; X1 = Clc1cccc(Cl)c1N*; X7 = Clc1cccc(N*)c1Cl; CO = O=C([*:1])[*:2]; X2 = CC(C)c1ccccc1N*

Experiment [1] addresses Gastrin/cholecystokinin type B receptor (Cavia porcellus). Description: Binding affinity for Cholecystokinin type B receptor in guinea pig cortex by using [125I]BH-CCK-8 as radioligand.
Experiment [2] shares this target. Description: Binding affinity towards cholecystokinin type B receptor in guinea pig cortex by using [125I]BH-CCK-8 as radioligand.
Experiment [3] has the same target. Nature of the experiment: Binding affinity for Cholecystokinin type B receptor in guinea pig cortex by using [125I]BH-CCK-8 as radioligand. This is another data set of the same source.

The molecule `CC(C)(C)OC(=O)N[C@@H](Cc1c[nH]c2ccccc12)C(=O)N[C@@H](CCCCNC(=O)Nc1c(Cl)cccc1Cl)C(=O)N[C@@H](CC(=O)O)C(=O)N[C@@H](Cc1ccccc1)C(N)=O` [3-{2-[2-tert-Butoxycarbonylamino-3-(1H-indol-3-yl)-propionylamino]-6-[3-(2,6-dichloro-phenyl)-ureido]-hexanoylamino}-N-(1-carbamoyl-2-phenyl-ethyl)-succinamic acid] (Boc-WK([CO-X1])DF-NH2) gave a pIC50 in experiment [1] of 5.15.

As for `CC(C)c1ccccc1NC(=O)NCCCC[C@H](NC(=O)[C@H](Cc1c[nH]c2ccccc12)NC(=O)OC(C)(C)C)C(=O)N[C@@H](CC(=O)O)C(=O)N[C@@H](Cc1ccccc1)C(N)=O` [3-{2-[2-tert-Butoxycarbonylamino-3-(1H-indol-3-yl)-propionylamino]-6-[3-(2-isopropyl-phenyl)-ureido]-hexanoylamino}-N-(1-carbamoyl-2-phenyl-ethyl)-succinamic acid] (Boc-WK([CO-X2])DF-NH2), the pIC50 in experiment [1] is 5.24.

`CC(C)(C)OC(=O)N[C@@H](Cc1c[nH]c2ccccc12)C(=O)N[C@@H](CCCCNC(=O)Nc1cccc(Cl)c1Cl)C(=O)N[C@@H](CC(=O)O)C(=O)N[C@@H](Cc1ccccc1)C(N)=O` [3-{2-[2-tert-Butoxycarbonylamino-3-(1H-indol-3-yl)-propionylamino]-6-[3-(2,3-dichloro-phenyl)-ureido]-hexanoylamino}-N-(1-carbamoyl-2-phenyl-ethyl)-succinamic acid] (Boc-WK([CO-X7])DF-NH2): in experiment [2], the pIC50 is 5.52.

With `Cc1ccccc1NC(=O)NCCC[C@H](NC(=O)[C@H](Cc1c[nH]c2ccccc12)NC(=O)OC(C)(C)C)C(=O)N[C@@H](CC(=O)O)C(=O)N[C@@H](Cc1ccccc1)C(N)=O` [3-[2-[2-tert-Butoxycarbonylamino-3-(1H-indol-3-yl)-propionylamino]-5-(3-o-tolyl-ureido)-pentanoylamino]-N-(1-carbamoyl-2-phenyl-ethyl)-succinamic acid] (Boc-W[Orn]([CO-NH(2-Me-phenyl)])DF-NH2), in experiment [1], the pIC50 was 4.82.

Turning to `COC(=O)c1cccc(NC(=O)NCCCC[C@H](NC(=O)[C@H](Cc2c[nH]c3ccccc23)NC(=O)OC(C)(C)C)C(=O)N[C@@H](CC(=O)O)C(=O)N[C@@H](Cc2ccccc2)C(N)=O)c1` (Boc-WK([CO-3Abz-OMe])DF-NH2), the negative logarithm of the IC50 (pIC50) in experiment [2] was 5.85.

Regarding `CC(C)(C)OC(=O)N[C@@H](Cc1c[nH]c2ccccc12)C(=O)N[C@@H](CCCC/N=C(\S)Nc1ccccc1Cl)C(=O)N[C@@H](CC(=O)O)C(=O)N[C@@H](Cc1ccccc1)C(N)=O`, the pIC50 in experiment [3] is 5.54.

As for `CC(C)(C)OC(=O)N[C@@H](Cc1c[nH]c2ccccc12)C(=O)N[C@@H](CCCCNC(N)=O)C(=O)N[C@@H](CC(=O)O)C(=O)N[C@@H](Cc1ccccc1)C(N)=O` [3-{2-[2-tert-Butoxycarbonylamino-3-(1H-indol-3-yl)-propionylamino]-6-ureido-hexanoylamino}-N-(1-carbamoyl-2-phenyl-ethyl)-succinamic acid] (Boc-W[hCit]DF-NH2), the pIC50 in experiment [1] was 6.00.

Consider `CC(C)(C)OC(=O)N[C@@H](Cc1c[nH]c2ccccc12)C(=O)N[C@@H](CCCCNC(=O)Nc1cccc2ccccc12)C(=O)N[C@@H](CC(=O)O)C(=O)N[C@@H](Cc1ccccc1)C(N)=O` [3-[2-[2-tert-Butoxycarbonylamino-3-(1H-indol-3-yl)-propionylamino]-6-(3-naphthalen-1-yl-ureido)-hexanoylamino]-N-(1-carbamoyl-2-phenyl-ethyl)-succinamic acid] (Boc-WK([CO-NH(1-naphthyl)])DF-NH2), for which the pIC50 in experiment [1] was 4.96.

`CC(C)(C)OC(=O)N[C@@H](Cc1c[nH]c2ccccc12)C(=O)N[C@@H](CCCCNC(=O)Nc1ccc2ccccc2c1)C(=O)N[C@@H](CC(=O)O)C(=O)N[C@@H](Cc1ccccc1)C(N)=O` [3-[2-[2-tert-Butoxycarbonylamino-3-(1H-indol-3-yl)-propionylamino]-6-(3-naphthalen-2-yl-ureido)-hexanoylamino]-N-(1-carbamoyl-2-phenyl-ethyl)-succinamic acid] (Boc-WK([CO-βNA])DF-NH2) had a pIC50 in experiment [1] of 5.49.

With `CC(C)(C)OC(=O)N[C@@H](Cc1c[nH]c2ccccc12)C(=O)N[C@@H](CCCCNC(=O)Nc1ccc(C(F)(F)F)cc1)C(=O)N[C@@H](CC(=O)O)C(=O)N[C@@H](Cc1ccccc1)C(N)=O` [3-{2-[2-tert-Butoxycarbonylamino-3-(1H-indol-3-yl)-propionylamino]-6-[3-(4-trifluoromethyl-phenyl)-ureido]-hexanoylamino}-N-(1-carbamoyl-2-phenyl-ethyl)-succinamic acid] (Boc-WK([CO-NHPh(4-CF3)])DF-NH2), in experiment [1], the pIC50 is 6.07.

Broadly, the pIC50 is the IC50 on a negative log10 scale, so that one unit is a factor of ten.
